The record followed here is US7141546B1, “CRFR2 selective ligands” (priority 2001, dated 2006).

The target in assay [1] is T1, CRFR2 (Homo sapiens, UniProt Q13324).
T1 construct: expressed in transfected cells
T1 sequence (Q13324 1-438 isoform Q13324-2): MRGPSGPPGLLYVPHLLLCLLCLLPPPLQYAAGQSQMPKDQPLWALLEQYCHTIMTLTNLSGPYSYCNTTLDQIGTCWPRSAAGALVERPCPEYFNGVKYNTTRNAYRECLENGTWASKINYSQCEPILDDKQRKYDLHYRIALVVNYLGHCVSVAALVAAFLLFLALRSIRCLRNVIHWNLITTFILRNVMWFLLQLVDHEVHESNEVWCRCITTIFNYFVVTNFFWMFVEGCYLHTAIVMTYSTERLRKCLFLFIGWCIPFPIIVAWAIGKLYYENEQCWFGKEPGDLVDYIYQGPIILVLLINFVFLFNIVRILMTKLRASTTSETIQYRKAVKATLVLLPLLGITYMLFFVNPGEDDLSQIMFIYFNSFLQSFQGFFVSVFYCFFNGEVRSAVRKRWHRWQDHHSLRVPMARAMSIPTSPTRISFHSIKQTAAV
Put plainly: cAMP accumulation in CHO cells stably transfected with CRFR2 and treated with CRF. The class given is cell-based. The note with it: for antagonism of CRF activity with respect to CRFR2 (cAMP accumulation): CHO cells stably transfected with CRFR2, treated with CRF. An excerpt: In addition to inhibiting CRF receptor binding, a candidate's CRF receptor antagonist activity may be established by the ability of the compound to antagonize an activity associated with CRF. For example, CRF is known to stimulate various biochemical processes, including adenylate cyclase activity. Therefore, compounds may be evaluated as CRF antagonists by their ability to antagonize CRF-stimulated adenylate cyclase activity by, for example, measuring cAMP levels. The inhibition of CRF-stimulated adenylate cyclase activity, determined by the assay described by G. Battaglia et al., Synapse 1:572 (1987), provides an assay for determining a compound's ability to antagonize CRF activity. Accordingly, CRF receptor antagonist activity may be determined by assay techniques which generally include an initial binding assay followed by such a cAMP screening protocol. […]
In general terms: Cyclic AMP is a second messenger, typically raised through Gs and lowered through Gi signalling.

In assay [2] the target is T2, CRFR1 (Homo sapiens, UniProt P34998).
T2 construct: expressed in transfected cells
T2 sequence (P34998 24-415): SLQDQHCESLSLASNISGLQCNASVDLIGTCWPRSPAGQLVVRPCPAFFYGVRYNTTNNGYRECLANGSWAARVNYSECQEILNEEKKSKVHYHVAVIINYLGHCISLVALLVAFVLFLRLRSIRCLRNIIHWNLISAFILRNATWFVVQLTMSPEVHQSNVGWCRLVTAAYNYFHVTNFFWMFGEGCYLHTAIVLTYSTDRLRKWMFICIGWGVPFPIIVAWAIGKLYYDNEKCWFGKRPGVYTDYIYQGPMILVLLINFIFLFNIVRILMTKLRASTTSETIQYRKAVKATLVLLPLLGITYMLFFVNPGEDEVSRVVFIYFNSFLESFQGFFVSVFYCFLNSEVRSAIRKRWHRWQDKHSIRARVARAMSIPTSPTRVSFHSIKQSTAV
The assay is described as follows: cAMP accumulation in CHO cells stably transfected with CRFR1 and treated with CRF. It counts as cell-based. The text has this:
In addition to inhibiting CRF receptor binding, a candidate's CRF receptor antagonist activity may be established by the ability of the compound to antagonize an activity associated with CRF. For example, CRF is known to stimulate various biochemical processes, including adenylate cyclase activity. Therefore, compounds may be evaluated as CRF antagonists by their ability to antagonize CRF-stimulated adenylate cyclase activity by, for example, measuring cAMP levels. The inhibition of CRF-stimulated adenylate cyclase activity, determined by the assay described by G. Battaglia et al., Synapse 1:572 (1987), provides an assay for determining a compound's ability to antagonize CRF activity. Accordingly, CRF receptor antagonist activity may be determined by assay techniques which generally include an initial binding assay followed by such a cAMP screening protocol.
(§1) Binding assays with cells expressing human CRFR1 are carried out as described in the Chen et al. P.N.A.S., supra. The affinities of test peptides for CRFR1 and CRFR2b stably expressed in CHO cells were determined by competitive displacement of ^125I-(Nle^21, Tyr^32) ovine CRF (for CRFR1) or of [^125I-Tyr^o-]Ucn (for CRFR2b) as described.

Assay [3] addresses T3, human CRFR2b (Homo sapiens, UniProt Q13324).
T3 construct: expressed in transfected cells
T3 sequence (Q13324 1-438 isoform Q13324-2): T1 sequence (Q13324 1-438 isoform Q13324-2)
Put plainly: Competitive displacement binding assay, stably transfected CHO cells expressing human CRFR2b. The note with it: for binding selectivity, CRFR2 versus CRFR1: in words, binding to CRFR2 compared with CRFR1. How it is done: (§2) CRF receptors have now been cloned and are disclosed in the aforementioned Chen et al. article, in Perrin, M., et al., P.N.A.S, 92, 2969–2973 (March 1995), and in Lovenberg, T., et al., P.N.A.S., 92, 836–840 (January 1995). Binding affinity is a term used to refer to the strength of interaction between ligand and receptor. […] Ki (inhibitory binding affinity constant) is determined using a “standard” or “tracer” radioactive ligand and thus measures the displacement of the tracer from the receptor or binding protein; it is most properly expressed with reference to such tracer. However, so long as these assays are carefully performed under specific conditions with relatively low concentrations of receptor or the like, the calculated Ki will be substantially the same as its dissociation constant KD. […] It is particularly efficient to test for Ki because only a single tracer need be labelled, e.g. radioiodinated. […] Those reported hereinafter are derived using radioactively labeled [Tyr Glu^1, Nle^17]-Svg as a radioligand.
as §1

Assay [4] concerns the target T2, CRFR1. The assay is described as follows: Competitive displacement binding assay, cloned hCRFR1 expressed in CHO cells.
Excerpt: A candidate CRFR2 ligand is also easily evaluated in a binding assay using known CRF receptors, such as that described in Perrin, M., et al., Endocrinology, 118, 1171–1179 (1986). CRF receptors and the details of binding assays are discussed later in this specification. […] One such representative binding assay utilizing CRF-R1 receptor is described in Chen, et al., P.N.A.S., 90, 8967–8971 (October 1993).
as §2, §1

Like-named read-outs stand apart in the source and are kept apart here. Bridge positions count the residues as written; N and C are the ends. Square brackets hold non-standard residues; d marks the D form. Peptide text beside a SMILES is read from it. αMeL = CC(C)C[C@](C)(N)C(=O)O; Nle = CCCC[C@H](N)C(=O)O

With “(cyclo 31–34)[Ac-D-Leu^11, His^12, CML^13,39, Nle^17, Glu^31 Lys^34]-sauvagine(8–40) [Example 3]”, the “antagonism of CRF activity with respect to CRFR2 (cAMP accumulation)” value (“antagonism … to CRFR2 (cAMP accumulation)” below) in assay [1] is reported as “effectively antagonize CRF activity”.
In the case of “(cyclo 31–34)[Ac-D-3 Pal^11, His^12, CML^13,39, Nle^17, Glu^31, Lys^34]-sauvagine(11–40) [Example 7]”, the “antagonism … to CRFR2 (cAMP accumulation)” value in assay [1] is reported as “effectively antagonize CRF activity”.
For “(cyclo 31–34) [D-Tyr^11, Lys^34], -Ucn(11–40) [Example 10]”, the “antagonism of CRF activity with respect to CRFR1 (cAMP accumulation)” value (shortened to “antagonism … to CRFR1 (cAMP accumulation)”) in assay [2] is on record as “little or no effect”. In assay [3], the “binding selectivity, CRFR2 versus CRFR1” value is reported as “very good selectivity”. Besides, in assay [1], the “antagonism … to CRFR2 (cAMP accumulation)” value is listed as “effectively antagonize CRF activity”.
On to “(cyclo 31–34)[Ac-D-Cpa^11, His^12, CML^13,39, Nle^17, Glu^31, Lys^34]-sauvagine(11–40) [Example 5]”, for which the “antagonism … to CRFR2 (cAMP accumulation)” value in assay [1] is listed as “effectively antagonize CRF activity”.
On the same count and under the same terms, the result for “(cyclo 31–34)[Ac-D-2Nal^11, His^12, CML^13,39, Nle^17, Glu^31, Lys^34]-sauvagine(11–40) [Example 6]” reads “effectively antagonize CRF activity”; that for “(cyclo 31–34)[Ac-D-Phe^11, His^12, CML^13,39, Nle^17, Glu^31, Orn^34]-sauvagine(11–40) [Example 8]”, “effectively antagonize CRF activity”.
In the case of `CCCC[C@H](NC(=O)[C@H](CCC(=O)O)NC(=O)[C@H](CC(C)C)NC(=O)[C@@H](NC(=O)[C@H](CCC(=O)O)NC(=O)[C@H](CCCNC(=N)N)NC(=O)[C@H](CC(C)C)NC(=O)[C@](C)(CC(C)C)NC(=O)[C@H](Cc1c[nH]cn1)NC(=O)[C@H](N)Cc1ccccc1)C(C)C)C(=O)N[C@@H](C)C(=O)N[C@@H](CCCNC(=N)N)C(=O)N[C@@H](C)C(=O)N[C@@H](CCC(=O)O)C(=O)N[C@@H](CCC(N)=O)C(=O)N[C@@H](CC(C)C)C(=O)N[C@@H](C)C(=O)N[C@@H](CCC(N)=O)C(=O)N[C@@H](CCC(N)=O)C(=O)N[C@@H](C)C(=O)N[C@H]1CCC(=O)NCCCC[C@@H](C(=O)N[C@@H](CCCCN)C(=O)N[C@@H](CC(C)C)C(=O)N[C@@H](CCCC)C(=O)N[C@@H](CCC(=O)O)C(=O)N[C@@](C)(CC(C)C)C(=O)N[C@H](C(N)=O)[C@@H](C)CC)NC(=O)[C@H](CC(N)=O)NC(=O)[C@H](CO)NC1=O` [Example 9B, (cyclo 32–35) [D-Phe^12, CML^14,40, Nle^21,38, Glu^32, Lys^35]-r/hCRF(12–41)] (H-[dF]H[αMeL]LREVLE[Nle]ARAEQLAQQAESNKKL[Nle]E[αMeL]I-NH2; lactam 21-24), the IC50 in assay [4] (read-out: affinity of cloned hCRFR1 for the peptide (competitive displacement of bound radioligand)) was above 100 nM.
Consider “(cyclo 31–34)[D-Phe^11, Lys^34]-Ucn(11–40) [Example 10A]”, for which the “antagonism … to CRFR1 (cAMP accumulation)” value in assay [2] was “little or no effect”. The “binding selectivity, CRFR2 versus CRFR1” value in assay [3] is “very good selectivity”. Moreover, in assay [1], the “antagonism … to CRFR2 (cAMP accumulation)” value was “effectively antagonize CRF activity”.
Consider “[D-Phe^11, Gln^31,Lys(Ac)^34]-Ucn(11–40) [Example 10B]”, for which the “antagonism … to CRFR1 (cAMP accumulation)” value in assay [2] is “little or no effect”. In assay [3], the “binding selectivity, CRFR2 versus CRFR1” value was “very good selectivity”. Also, the “antagonism … to CRFR2 (cAMP accumulation)” value in assay [1] is listed as “effectively antagonize CRF activity”.
As to “(cyclo 31–34) [Ac-Asp^8,D-Phe^11,Lys^34]-Ucn(8–40) [Example 10C]”, the “antagonism … to CRFR1 (cAMP accumulation)” value in assay [2] is on record as “little or no effect”. For the same molecule, in assay [3], the “binding selectivity, CRFR2 versus CRFR1” value is on record as “very good selectivity”. For the same molecule, the “antagonism … to CRFR2 (cAMP accumulation)” value in assay [1] is on record as “effectively antagonize CRF activity”. In addition, in assay [1] (in words, compared with the parent Ucn analog), the “selectivity as Ucn antagonist” value is listed as “does not significantly alter its selectivity”.
For the molecule “[Ac-Asp^8,D-Phe^11,CML^13,39, Lys^34]-Ucn(8–40) [Example 10D]”, the “antagonism … to CRFR1 (cAMP accumulation)” value in assay [2] is reported as “little or no effect”. Moreover, in assay [3], the “binding selectivity, CRFR2 versus CRFR1” value was “very good selectivity”. Also, the “antagonism … to CRFR2 (cAMP accumulation)” value in assay [1] is “effectively antagonize CRF activity”.
On to “(cyclo 31–34)[Ac-D-Tyr^11, His^12, CML^13,39, Nle^17, Glu^31, Lys^34]-sauvagine(11–40) [Example 4]”, for which, in assay [1], the “antagonism … to CRFR2 (cAMP accumulation)” value was “effectively antagonize CRF activity”.
What is called Ki is the dissociation constant of the complex between target and ligand, obtained from inhibition or displacement. Low readings indicate higher affinity, high ones lower affinity. In assay [4], `CCCC[C@H](NC(=O)[C@H](CCCCN)NC(=O)[C@H](CCCNC(=N)N)NC(=O)[C@H](CC(C)C)NC(=O)[C@](C)(CC(C)C)NC(=O)[C@H](Cc1c[nH]cn1)NC(=O)[C@@H](Cc1ccccc1)NC(=O)[C@H](CO)NC(=O)[C@H](CC(C)C)NC(=O)[C@H](CC(=O)O)NC(C)=O)C(=O)N[C@H](C(=O)N[C@@H](CCC(=O)O)C(=O)N[C@H](C(=O)N[C@@H](CCC(=O)O)C(=O)N[C@@H](CCCCN)C(=O)N[C@@H](CCC(N)=O)C(=O)N[C@@H](CCC(=O)O)C(=O)N[C@@H](CCCCN)C(=O)N[C@@H](CCC(=O)O)C(=O)N[C@@H](CCCCN)C(=O)N[C@@H](CCC(N)=O)C(=O)N[C@@H](CCC(N)=O)C(=O)N[C@@H](C)C(=O)N[C@H]1CCC(=O)NCCCC[C@@H](C(=O)N[C@@H](CC(C)C)C(=O)N[C@@H](CC(C)C)C(=O)N[C@@H](CC(C)C)C(=O)N[C@@H](CC(=O)O)C(=O)N[C@@](C)(CC(C)C)C(=O)N[C@H](C(N)=O)[C@@H](C)CC)NC(=O)[C@H](CC(N)=O)NC(=O)[C@H](CC(N)=O)NC1=O)[C@@H](C)CC)[C@@H](C)CC` [Example 2 cyclic peptide, (cyclo 31–34)[Ac-D-Phe^11, His^12, CML^13,39, Nle^17, Glu^31, Lys^34]-sauvagine(8–40)] had an IC50 above 500 nM and a Ki of around 543 nM. Moreover, the “antagonism … to CRFR1 (cAMP accumulation)” value in assay [2] was “little or no effect”. In assay [3], this molecule returned an IC50 of 1.3 nM. Further, in assay [1], the “antagonism … to CRFR2 (cAMP accumulation)” value is “effectively antagonize CRF activity”.
